Earlier results in patent US6699676B1, “Uses of ouabain and ouabain-like molecules in apoptosis related pathologies” (Corporation du Centre de Recherche du Centre, Hospitalier …, priority 1999, dated 2004).

Tested on: VSMC
Settings: moderate elevation of [Ca2+]i, reference (37); cited from earlier work

SMILES	effect on VSMC apoptosis
C[C@H](CCC(=O)O)C[C@H](C)C[C@H](C)C(=O)/C=C(\O)[C@H](C)C[C@H](C)C/C=C/[C@@H](C)[C@@H](O)[C@@H](C)[C@@H](O)C[C@@H]1CC[C@@](C)([C@H]2CC[C@@](C)([C@@H](C)O)O2)O1 [ionomycin]	did not observe any effect
C/C=C(/C)C(=O)O[C@H]1C(C)=C2[C@H]([C@@H]1OC(=O)CCCCCCC)[C@@](C)(OC(C)=O)C[C@H](OC(=O)CCC)[C@@]1(O)[C@H]2OC(=O)[C@@]1(C)O [thapsigargin]	did not observe any effect
